Data taken from patent publication US10918610B2, “Compounds and methods of promoting myelination” (Case Western Reserve University, priority 2017, dated 2021).

Biological target: T1, EBP (Mus musculus, UniProt P70245)
T1 construct: endogenous in cells; host or cells: mouse EpiSC-derived oligodendrocyte progenitor cells (EpiSC5 line)
T1 sequence (P70245 1-230): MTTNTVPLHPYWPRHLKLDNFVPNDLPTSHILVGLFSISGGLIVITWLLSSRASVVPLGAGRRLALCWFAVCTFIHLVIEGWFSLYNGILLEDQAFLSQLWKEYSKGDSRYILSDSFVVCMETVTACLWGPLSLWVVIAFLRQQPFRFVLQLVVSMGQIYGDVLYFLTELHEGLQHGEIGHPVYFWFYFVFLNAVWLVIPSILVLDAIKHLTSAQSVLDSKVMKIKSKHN
Test: GC/MS-based sterol profiling in EpiSC-derived OPCs (EBP inhibition)
Type: cell-based
Protocol: EpiSC-derived OPCs were plated at one million cells per well in PDL- and laminin-coated six well plates with differentiation media. After 24 hours, cells were dissociated with Accutase, rinsed with saline, and cell pellets were frozen. For sterol analyses, cells were lysed in methanol (Sigma-Aldrich) with agitation for 30 minutes and cell debris removed by centrifugation at 10,000 rpm for 15 min. Cholesterol-d7 standard (25,26,26,26,27,27,27-^2H7-cholesterol, Cambridge Isotope Laboratories) was added before drying under nitrogen stream and derivatization with 55 al of bis(trimethylsilyl)trifluoroacetamide/trimethylchlorosilane to form trimethylsilyl derivatives. Following derivatization at 60° C. for 20 minutes, 1 μl was analyzed by gas chromatography/mass spectrometry using an Agilent 5973 Network Mass Selective Detector equipped with a 6890 gas chromatograph system and a HP-5MS capillary column ([…]). Samples were injected in splitless mode and analyzed using electron impact ionization. Ion fragment peaks were integrated to calculate sterol abundance, and quantitation was relative to cholesterol-d7. The following m/z ion fragments were used to quantitate each metabolite: cholesterol-d7 (465), FF-Mas (482), cholesterol (368), zymostenol (458), zymosterol (456), desmosterol (456, 343), 7-dehydrocholesterol (456, 325), lanosterol (393), lathosterol (458), 14-dehydrozymostenol (456). […] After derivatization, 1 al was analyzed by gas chromatography/mass spectrometry using an Agilent 5973 Network Mass Selective Detector equipped with a 6890 gas chromatograph system and a HP-5MS capillary column ([…]). Samples were analyzed in full scan mode using electron impact ionization; ion fragment peaks were integrated to calculate sterol abundance, and quantitation was relative to cholesterol-d7. The following ion fragments were used to quantitate each metabolite: cholesterol-d7 (465), cholesterol (368)(Sigma Aldrich), zymostenol (458), All standards were obtained from Avanti Polar Lipids unless otherwise indicated. […]

[1] = 100 nm, 24 hours, versus DMSO control

SMILES: CCN(C/C=C\c1ccc(C2CCCCC2)c(Cl)c1)C1CCCCC1 [Cis-N-cyclohexyl-N-ethyl-3-(3-chloro-4-cyclohexylphenyl)prop-2-enylamine]
- zymostenol in mouse OPCs (FIG. 5) (10 nM, 30 nM, 100 nM): accumulate zymostenol
- cholesterol in OPCs (FIG. 1B) [1]: produce lesser amounts of cholesterol
- zymostenol in OPCs (FIG. 1B) [1]: accumulate zymostenol
